Values quoted from earlier work, collected in patent US9433581B2, “Poly(vinyl benzoate) nanoparticles for molecular delivery” (University of South Florida, priority 2010, dated 2016).

Conditions: octanol/water, reported in the literature

Log P	Molecule
5.43	5(6)-carboxyfluorescein
−3.45	CCN(CC)c1ccc2cc(-c3nc4ccccc4s3)c(=O)oc2c1 [Coumarin-6, coumarin-6]
